US20060135587A1, “Method and compounds for promoting healing and reducing inflammation” (priority 2002, published 2006)

Columns and labels:
[1] = test system: full-thickness skin wounds; experiment: Morphological assessment of the wound healing stages; type: in vivo, rats; details: Day 15
Source text: An important indicator of wound healing is the morphology and epithelialization of the wound surface (Sarkisov et al, 1981). Samples were taken from experimental animals on the fifth, tenth and fifteenth days of the study described in Example 13, which roughly correspond to the three wound healing stages: the first traumatic inflammation stage is complete by the fifth day, the granulation tissue development stage is complete by the tenth day, and cicatrisation and epithelialization take place from the fifteenth to twentieth days. The results are illustrated in FIG. 1.
A comparative assessment of the healing of a full-thickness wound was performed on the basis of a set of morphological indicators characterising the regeneration process: […]

myocardial infarction [2] = experiment: Clinical comparison of Compound 2 and Riboxin in subacute myocardial infarction (Example 25); type: in vivo, human
Experimental: A total of 94 patients were examined; of these:
Conventional therapy as for example 24 was given to 30 patients. Each patient continued to receive the treatment which s/he had been given prior to commencement of the trial. Compound 2 was administered in addition to the previous treatment.
All the patients underwent standard laboratory tests prior to commencement of Compound 2 therapy, 14 days after the beginning of the course and upon completion of the course. The tests included clinical blood analysis; general urine analysis; evaluation of creatinine, bilirubin, transaminase activity, blood sugar, cholesterol and β-lipoproteins, malonic dialdehyde, Schiff bases, zinc, iron, copper, plasma potassium and sodium, prothrombin and fibrinogen; and an ECG examination in dynamics.
All the patients received conventional therapy, i.e. nitrates, anticoagulants and/or hypotensive agents as appropriate.
Combination therapy included Compound 2 (1st group—32 patients) or Riboxin (2nd group—18 patients). The agents were administered at a dose of 200 mg three times per day.

[3] = test system: neurogenic dystrophy of the myocardium; experiment: Myocardial infarction model (electrostimulation of aortic arch), creatine phosphate in rat myocardium; type: in vivo, rats
Source text: The effect of Compound 2 on myocardial tissue in an experimental model of myocardial infarction was examined. In this model system neurogenic dystrophy of the myocardium was induced in rats or rabbits by electrical stimulation of the reflexogenic zone of the aortic arch by implanted electrodes for a period of three hours. […] These changes are accompanied by changes in biochemical indicators such as creatine phosphate, cAMP, and calcium ion concentrations, and changes in the activity of redox enzymes such as succinate dehydrogenase, lactate dehydrogenase, and glucose-6-phosphate dehydrogenase. At a later stage organic lesions of the myocardium such as necrotic and fibrosclerotic foci can be observed.
The effect of Compound 2 given intraperitoneally or orally on these indicators was examined in rats and rabbits following electrostimulation as described above. The effects on levels of creatine phosphate in rat myocardial are shown in Table 19, and the effects on adenosine triphosphatase (ATPase), succinate dehydrogenase and glucose-6-phosphate dehydrogenase rabbit myocardium are shown in Table 20. The effects on cAMP and Ca^++ levels in rabbit myocardial tissue are shown in FIG. 5, and effects on creatine kinase in rabbit myocardium and blood and the levels of creatine phosphate in myocardium are shown in FIG. 6.

rats = experiment: Acute toxicity (LD50) in rats; type: in vivo
Source text: It is contemplated that in clinical use, treatment using oral tablets will take two to three weeks, with each patient receiving three tablets containing 0.6 g active compound per day.

[4] = test system: lesions of the gastric mucosa; experiment: Gastric lesions induced by electrostimulation of immobilised rats; type: in vivo
Experimental: The models used gastric ulcers induced by
a) Electrostimulation of immobilised rats for 3 hours;
The compounds were administered intraperitoneally at a dose of 20 mg/kg; in the cryogenic ulcer model compound 2 was administered either intraperitoneally (10 mg/kg) or orally (20 mg/kg twice daily, ie. a total of 40 mg/kg/day) and was compared to orally-administered gastrocepin (1 mg/kg twice daily, ie. a total of 2 mg/kg/day).

myocardial infarction [5] = experiment: Clinical study in subacute phase of myocardial infarction (Example 24); type: in vivo, human
Experimental: The effect of Compound 2 therapy in patients suffering from the subacute phase of myocardial infarction (MI) was assessed. The patients were divided into two groups. There were no substantial differences between the groups in terms of age and basic features of necrotic foci. Each patient continued to receive the treatment which s/he had been given prior to commencement of the trial. Compound 2 was administered in addition to the previous treatment. The first group included 63 patients who received conventional therapy, i.e. nitrates, anticoagulants and/or hypotensive agents as appropriate, and the second group comprised 44 patients who were treated with Compound 2 at a dose of 600 mg per day from the 7th to the 28th day after diagnosis of myocardial infarction, in addition to receiving conventional treatment. The control group included 14 healthy men aged from 26 to 42. The average age of patients in the first group was 50.3 years, and in the second group, 49.5 years.
Clinical evidence from daily examinations of both groups and the results of electrocardiagraphic examination in 12 abductions were assessed over the entire observation period. A number of analyses were made on the 7th and 28th day of progress of MI, including clinical blood count, plasma bilirubin, sugar, creatinine, cholesterol, β3-lipoproteins, potassium and sodium, and urine analysis; the activity of the prothrombin complex and the time of re-calcification were also determined. Central haemodynamics were examined using the method of body integral rheography, whereby the stroke volume and cardiac indices were calculated. Indices of left ventricular contractility—terminal diastolic volume, ejection fraction, and the extent of systolic contraction of anteroposterior cavity dimensions (% ΔS)— were examined using the echography method using an Aloka SSD-119 apparatus (Japan). Central and intracardiac haemodynamics was investigated on the 1st, 7th; 14th, 21st and 28th days of the disease.

[6] = 200 mg three times per day plus conventional therapy
[7] = patients with repeated myocardial infarct
[8] = Healing effect over the course of 3 days
[9] = Protective effect, 30 minutes before the test

With `CC[n+]1cn(C)c(C(=O)NC)c1C(=O)NC.O=S(=O)([O-])c1ccccc1` [Compound 2, 1-methyl-3-ethyl-4,5-bis(N-methylcarbamoyl)-imidazolium benzenesulfonate] the “animals showing complete epithelialization of the wound” value [1] was 60%, the “animals showing incomplete epithelialization” value [1] was 40% and the cholesterol levels (myocardial infarction [2]; [6]) was 96.5%. For the same molecule, the level of prothrombin (myocardial infarction [2]; [6]) was 91.3%, the ejection fraction (myocardial infarction [2]; 200 mg three times per day plus conventional therapy, 54.4±1.5% in the absence of the agent) was 60.0±0.5% and the malonic dialdehyde (myocardial infarction [2]; 21st day, 1.3 before treatment, normal 1.21) was 1 nmol/mL. The superoxide dismutase levels (myocardial infarction [2]; after therapy, 18-20 before treatment, norm 23) was 25 conventional units, the “level of Schiff bases” value (myocardial infarction [2]; after therapy, 75 before treatment, normal 60) was 40 conventional units and the “allergic reactions or side effects” value (myocardial infarction [2]; human, in vivo) was “did not develop any allergic reactions or side effects”. The “cases in which cicatrisation took place one or two days earlier” value (myocardial infarction [2]; [7]) was 90%, the “time of cicatrisation on the average” value (myocardial infarction [2]; [7]) was 27 days and the “Level of creatine phosphate (μM/g) in rat myocardium” value (shortened to “Level of creatine phosphate (μM/g)”) ([3]; Oral 10 mg/kg, 3 days after stimulation) was 1.09 ± 0.1 µM/g. The “Level of creatine phosphate (μM/g)” value ([3]; Oral 10 mg/kg, Before stimulation) was 0.80 ± 0.07 µM/g, the “Level of creatine phosphate (μM/g)” value ([3]; intraperitoneal 10 mg/kg, 3 days after stimulation) was 0.95 ± 0.06 µM/g and the “Level of creatine phosphate (μM/g)” value ([3]; intraperitoneal 10 mg/kg, Before stimulation) was 0.92 ± 0.08 µM/g. The “Level of creatine phosphate (μM/g)” value ([3]; intraperitoneal 20 mg/kg, 3 days after stimulation) was 1.07 ± 0.04 µM/g, the “Level of creatine phosphate (μM/g)” value ([3]; intraperitoneal 20 mg/kg, Before stimulation) was 1.04 ± 0.15 µM/g and the LD50 (rats; given intraperitoneally) was 1210 mg/kg. For the same molecule, the LD50 (rats; oral administration) was “more than 20000 mg/kg”, the “% reduction of degree of ulceration” value [4, 8] was 50% and the “Average number of lesions per animal” value [4, 8] was 1.7 ± 0.2. The “% reduction of degree of ulceration” value [4, 9] was 66%, the “% reduction of ulcerated area” value [4, 9] was 91% and the Area of lesion [4, 9] was 2.8 ± 2.1. For the same molecule, the “Average number of lesions per animal” value ([4]; Protective effect, 30 minutes before the test, 20 mg/kg intraperitoneally) was 2.4 ± 0.8, the “left ventricular myocardial contractility” value (myocardial infarction [5]; 600 mg per day combined with conventional therapy) was “increased the rate and extent of regeneration of left ventricular myocardial contractility” and the clinical side effects (myocardial infarction [5]; 600 mg per day, 7th to 28th day of the disease) was “did not produce any clinical side effects”. The serum bilirubin (myocardial infarction [5]; 600 mg per day, does not exceed the upper limit of standard values) was “increase in unconjugated and hence total bilirubin in serum”.
